Experimental findings from US20060014940A1, “Cloning and characterization of slc26a6, slc26a1, and slc26a2 anion exchangers” (priority 2002, published 2006) are described below.

Molecules are shown by their SMILES.

The target of one assay is T1, mouse SLC26A6b (Mus musculus, UniProt Q8CIW6, R572P).
T1 construct: Full-length mouse SLC26A6b and SLC26A 1 cDNAs were cloned into the Xenopus expression vector pGEMHE; expressed in transfected cells; host or cells: Xenopus laevis oocytes injected with in vitro transcribed cRNA (pGEMHE)
T1 sequence (Q8CIW6 24-758 R572P limits assumed): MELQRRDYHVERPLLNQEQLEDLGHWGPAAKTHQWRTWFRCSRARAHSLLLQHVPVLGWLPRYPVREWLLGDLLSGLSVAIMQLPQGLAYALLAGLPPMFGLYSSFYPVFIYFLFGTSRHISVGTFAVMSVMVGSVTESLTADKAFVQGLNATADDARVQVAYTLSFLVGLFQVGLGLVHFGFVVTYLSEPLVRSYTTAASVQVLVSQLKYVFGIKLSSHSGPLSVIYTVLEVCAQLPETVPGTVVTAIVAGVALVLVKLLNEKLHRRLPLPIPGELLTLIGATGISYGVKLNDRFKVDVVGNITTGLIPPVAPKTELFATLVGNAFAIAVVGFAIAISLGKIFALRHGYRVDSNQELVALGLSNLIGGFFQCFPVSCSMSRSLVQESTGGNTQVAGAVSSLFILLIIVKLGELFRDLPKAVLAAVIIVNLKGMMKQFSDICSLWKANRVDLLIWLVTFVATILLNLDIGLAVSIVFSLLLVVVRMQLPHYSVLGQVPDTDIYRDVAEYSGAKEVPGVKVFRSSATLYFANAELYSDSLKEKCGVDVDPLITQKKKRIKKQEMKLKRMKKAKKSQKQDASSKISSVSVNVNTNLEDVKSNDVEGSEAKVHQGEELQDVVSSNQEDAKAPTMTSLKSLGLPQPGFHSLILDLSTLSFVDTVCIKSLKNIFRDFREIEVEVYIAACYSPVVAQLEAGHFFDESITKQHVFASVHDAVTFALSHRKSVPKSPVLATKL
Nature of the assay: Radiolabelled anion uptake/exchange in Xenopus oocytes expressing mouse SLC26A6b. Type of assay: cell-based. The method, then: (§1) Full-length mouse SLC26A6b and SLC26A 1 cDNAs were cloned into the Xenopus expression vector pGEMHE (Liman et al., 1992). The SLC26A6 and SLC26A1 expression constructs were linearized, and cRNA was transcribed in vitro using T7 RNA polymerase and a […] MMACHINE® transcription kit (Ambion, Inc. of Austin, Tex., United States of America). Defolliculated oocytes were injected with 25 nl to 50 nl of water or with a solution containing cRNA at a concentration of 0.5 μg/μl (12.5 ng to 25 ng per oocyte) using a Nanoliter-2000 injector (WPI Instruments of Sarasota, Fla., United States of America). Oocytes were incubated at 17° C. in 50% Leibovitz's L-15 media supplemented with penicillin/streptomycin (1000 units/ml) and glutamine for 2-3 days for uptake assays.
(§2) For sulphate uptake assays, oocytes were pre-incubated for 20 minutes in chloride-free uptake medium (100 mM NMDG gluconate, 2 mM potassium gluconate, 1 mM calcium gluconate, 1 mM magnesium gluconate, 10 mM HEPES-Tris, pH 6.0 or pH 7.5 as indicated), followed by a 60-minute period for uptake in the same medium supplemented with 1 mM K2^35SO4 (40 μCi/ml). The cells were then washed three times in uptake buffer with 5 mM cold K2SO4 to remove tracer activity in the extracellular fluid. The oocytes were dissolved individually in 10% SDS, and tracer activity was determined by scintillation counting. Uptake of chloride, formate, and oxalate was assayed using the same chloride-free uptake solutions, substituting 8.3 mM ^36Cl, 500 μM [^14C]oxalate, or 50 μM [^14C]formate for labeled sulphate.
(§3) For sulphate exchange and cis-inhibition experiments, the concentration of NMDG-gluconate in the uptake solution was adjusted to maintain isotonic osmolality, which was confirmed experimentally using a FISKE® osmometer (Fiske Associates, Inc. of Bethel, Conn., United States of America).

Another assay concerns the target T2, mouse SLC26A1 (Mus musculus, UniProt P58735, C691Y).
T2 construct: Full-length mouse SLC26A6b and SLC26A 1 cDNAs were cloned into the Xenopus expression vector pGEMHE; expressed in transfected cells; host or cells: Xenopus laevis oocytes injected with in vitro transcribed cRNA (pGEMHE)
T2 sequence (P58735 1-704 C691Y): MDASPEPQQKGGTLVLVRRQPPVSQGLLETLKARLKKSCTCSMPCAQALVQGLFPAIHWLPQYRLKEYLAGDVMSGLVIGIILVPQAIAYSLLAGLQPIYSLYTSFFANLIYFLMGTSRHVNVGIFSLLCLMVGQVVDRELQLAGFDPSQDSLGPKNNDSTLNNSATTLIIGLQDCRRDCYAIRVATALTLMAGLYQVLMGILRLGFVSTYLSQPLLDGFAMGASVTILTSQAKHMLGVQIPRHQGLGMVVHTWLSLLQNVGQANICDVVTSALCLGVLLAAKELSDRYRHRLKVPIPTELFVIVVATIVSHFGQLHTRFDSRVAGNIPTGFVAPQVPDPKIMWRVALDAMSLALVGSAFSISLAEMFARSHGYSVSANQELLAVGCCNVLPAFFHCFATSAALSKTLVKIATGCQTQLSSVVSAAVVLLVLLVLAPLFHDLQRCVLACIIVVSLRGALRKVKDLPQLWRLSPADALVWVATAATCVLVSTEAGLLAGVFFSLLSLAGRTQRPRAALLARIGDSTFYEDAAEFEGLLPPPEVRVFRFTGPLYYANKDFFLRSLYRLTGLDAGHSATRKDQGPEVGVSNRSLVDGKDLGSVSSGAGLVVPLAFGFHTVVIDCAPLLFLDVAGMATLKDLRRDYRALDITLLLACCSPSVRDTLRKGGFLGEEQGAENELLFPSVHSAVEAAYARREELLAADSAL
Nature of the assay: Radiolabelled anion uptake in Xenopus oocytes expressing mouse SLC26A1. The assay is classed as cell-based. The method, then: as §1, §2, §3

Take `O=C(O)C(=O)O` [oxalate]: the oxalate uptake at mouse SLC26A6b (500 μM [14C]oxalate (FIG. 8A)) is given as 487±50 pmol/oocyte/hour; on mouse SLC26A1 (SLC26A1-injected oocytes (FIG. 8A)) it was 72±2 pmol/oocyte/h. The “exchange of SO4 2− with extracellular anion (trans-stimulation of 35SO4 efflux)” value at mouse SLC26A6b (10 mM of the anion, 30 minutes (FIG. 7C)) is on record as “clearly mediated exchange”. Besides, the “effect of extracellular anion on SO4 2− transport via SLC26A1” value on mouse SLC26A1 (25 mM of the anion (FIG. 9A, 6C)) is recorded as “strongly cis-inhibitory”.
